Measurements as given in article PMC11431997, “Baicalin Inhibits FIPV Infection In Vitro by Modulating the PI3K-AKT Pathway and Apoptosis Pathway” (International Journal of Molecular Sciences, 2024).
In brackets after ≈: the same amount, converted by molar mass. Read-outs that look alike come from different tables or passages of the source.

Experiments:
CRFK cells = test: Cytotoxicity assay of the compounds (CCK-8); format: cell-based, feline
Description: (§1) CRFK cells were seeded in 96-well cell culture plates at a density of 1 × 10^4 cells/well and incubated at 37 °C with 5% CO2 until the cell density reached more than 90%. Then, the medium was discarded, and the cells were washed twice with PBS. The compound to be tested was diluted in 10 successive gradients with MM at a 2-fold multiplicity (at the same time, there was a cell control group of 100 μL of MM, and 3 replicate wells were set for each concentration and group) and incubated at 37 °C with 5% CO2 for 72 h; then, the liquid in the plate was discarded and washed twice with PBS. Afterwards, the cytopathic ratios (CRs) of the compounds to cells were calculated according to the instructions of the Cell Counting Kit-8 (MCE, NJ, USA), and the CC50s of the compounds and the MNTCs at which the compounds could survive more than 90% of the cells were calculated using GraphPad Prism 10. In subsequent experiments, the final concentrations of the compounds after addition were the MNTCs of the compounds unless otherwise specified.

[1] = Cytotoxicity assay of the compounds (CCK-8); format: cell-based, feline; details: cat
Description: as §1

FIPV (BJ-01) = test: Inhibitory effects of compounds on FIPV-infected cells (compound and FIPV added simultaneously, CCK-8); format: cell-based, feline infectious peritonitis virus; details: 72 h; for inhibition of FIPV infection (MIR): compound at MNTC added with 100 TCID50 FIPV to CRFK cells
Description: According to previous methods, CRFK cells were seeded in 96-well cell culture plates at a density of 1 × 10^4 cells/well and cultured at 37 °C in 5% CO2 until the cell density was greater than 90%. After the cells were washed twice with PBS, 50 μL of test compound and 50 μL of FIPV were added to each well simultaneously (at the same time, a cell control group with only 100 μL of MM and a viral control group with only 100 μL of FIPV were added). There were 3 replicate wells for each compound and group. After 72 h of incubation at 37 °C and 5% CO2, the liquid in the plate was discarded, and the cells were washed twice with PBS. The MIR of the compounds to the virus was calculated according to the instructions of the Cell Counting Kit-8. Afterwards, the compounds with MIR > 50% were diluted to 8 concentrations with MM, and the above process was repeated. Then, the EC50 values of the compounds were calculated with GraphPad Prism 10.

[2] = CRFK cells, 72 h, CCK-8, concentration at which more than 90% of the cells survive
[3] = CRFK cells, 72 h, CCK-8, read-out: CC50

| SMILES | MNTC (maximum noncytotoxic concentration) (CRFK cells; cat, 72 h) | CC50 at 72 h [1] | inhibition of FIPV infection (MIR) (FIPV (BJ-01)) | MNTC (maximum noncytotoxic concentration) (CRFK cells; [2]) | CC50 at 72 h [1, 3] | other results |
| --- | --- | --- | --- | --- | --- | --- |
| O=C(O)/C=C/c1ccc(O)c(O)c1 [Caffeic acid] | 53.43 µg/mL | 58.8 mg/L (≈ 326 µM) |  |  |  |  |
| O=C(/C=C/c1ccc(O)c(O)c1)O[C@@H]1C[C@](O)(C(=O)O)C[C@@H](O)[C@H]1O [Chlorogenic acid] | 1605 µg/mL | 2170 mg/L (≈ 6120 µM) |  |  |  |  |
| C[S+](C)[O-] [DMSO] |  |  |  |  |  | MNTC (CRFK cells): 0.83% |
| Cc1cccc2c3c(ccc12)C1=C(C(=O)C3=O)[C@@H](C)CO1 [Dihydrotanshinone I] | 246.4 µg/mL | 426 mg/L (≈ 1530 µM) | less than 20% |  |  |  |
| N#C[C@@]1(c2ccc3c(N)ncnn23)O[C@H](CO)[C@@H](O)[C@H]1O [GS-441524, reference compound] |  |  | significantly more than the other compounds tested | 36.20 µg/mL | 70.3 mg/L (≈ 241 µM) | EC50 (FIPV (BJ-01); Alphacoronavirus 1, FIPV in CRFK cells, gradient dilution, CCK-8): 0.205 mg/L (≈ 0.704 µM) |
| CC1(C)[C@@H](O[C@H]2O[C@H](C(=O)O)[C@@H](O)[C@H](O)[C@H]2O[C@@H]2O[C@H](C(=O)O)[C@@H](O)[C@H](O)[C@H]2O)CC[C@]2(C)[C@H]3C(=O)C=C4[C@@H]5C[C@@](C)(C(=O)O)CC[C@]5(C)CC[C@@]4(C)[C@]3(C)CC[C@@H]12 [Glycyrrhizic acid] |  |  |  | 1412 µg/mL | 3320 mg/L (≈ 4040 µM) |  |
| Cc1nc(C)c(C)nc1C.Cl [Ligustrazine hydrochloride] |  |  | less than 20% | 969.6 µg/mL |  | CC50 (CRFK cells; CRFK cells, 72 h, CCK-8): 2709 mg/L |
| O=C1CCC[C@@H]2[C@H]3CCCN4CCC[C@@H](CN12)[C@@H]34 [Matrine] |  |  | less than 20% | 699.8 µg/mL | 1110 mg/L (≈ 4470 µM) |  |
| O=c1c(-c2ccc(O)cc2)coc2c([C@@H]3O[C@H](CO)[C@@H](O)[C@H](O)[C@H]3O)c(O)ccc12 [Puerarin] | 83.77 µg/mL | 209 mg/L (≈ 501 µM) | less than 20% |  |  |  |
| Cc1coc2c1C(=O)C(=O)c1c-2ccc2c1CCCC2(C)C [Tanshinone IIA] |  |  | less than 20% | 290.9 µg/mL | 807 mg/L (≈ 2740 µM) |  |
